# Assays:
# Assay type in all cases: in vivo
# [1] = system: caterpillars of the diamondback moth (Plutella maculipennis); assay: Contact action and effect of ingested food on caterpillars of the diamondback moth (Plutella maculipennis); conditions: 4th stage caterpillars, 48 hours, read-out: Kill rate; for mortality at 0.02 %: 0.02 wt % in emulsion; for mortality at 0.01 %: 0.01 wt % in emulsion; for mortality at 0.001 %: 0.001 wt % in emulsion; for mortality at 0.002 %: 0.002 wt % in emulsion
# Experimental: Contact action and effect of ingested food on caterpillars of the diamondback moth (Plutella maculipennis)
# Leaves of young cabbage plants are dipped for 3 seconds in aqueous emulsions of the active ingredients and, after excess liquid has been briefly allowed to drip off, placed on a moist filter paper in a Petri dish. 10 caterpillars of the 4th stage are then placed on each leaf.
# (§1) The action is assessed after 48 hours.
# [2] = system: cockroaches (Blatta orientalis); assay: whole plant or invertebrate; conditions: 48 hours; for mortality at 0.2 mg: 0.2 mg active ingredient per jar; for mortality at 0.1 mg: 0.1 mg active ingredient per jar
# Experimental: Contact action on cockroaches (Blatta orientalis)
# The bottom of 1-liter preserving jars is treated with acetonic solutions of the active ingredients. After the solvent has evaporated, 5 adult cockroaches are placed in each jar, and the kill rate is determined after 48 hours.
# [3] = system: bean aphids (Aphis fabae); assay: Contact action on bean aphids (Aphis fabae); spray experiment; conditions: 48 hours; for mortality at 0.005 %: 0.005 wt % in formulation; for mortality at 0.01 %: 0.01 wt % in formulation
# Experimental: Contact action on bean aphids (Aphis fabae); spray experiment
# Potted bean plants (Vicia faba) with extensive bean aphid colonies are sprayed to runoff in a spray booth with aqueous formulations of the active ingredients.
# as §1
# [4] = system: ticks (Ornithodorus moubata); assay: Contact action on ticks (Ornithodorus moubata); conditions: 3rd larval stage, 48 hours
# Experimental: Contact action on ticks (Ornithodorus moubata)
# Ticks in the 3rd larval stage are placed in paper bags and dipped for 3 seconds in the emulsion under investigation. The bags are then suspended. The action on the ticks is assessed after 48 hours.
# [5] = system: houseflies (Musca domestica); assay: Contact action on houseflies (Musca domestica), topical to ventral abdomen; conditions: 1 μl in acetone to ventral abdomen; 4-day old imagoes; 4 hours; worked out by graph
# Experimental: Contact action on houseflies (Musca domestica)
# 1 μl of the active ingredients dissolved in acetone is administered by means of a microsyringe to the ventral abdomen of 4-day old imagoes under slight CO2 narcosis.
# 20 animals treated in the same way are then placed in a plastic bag having a volume of approx. 500 ml. After 4 hours, the animals in supine position are counted and the LD50 is worked out by means of a graph.
# [6] = system: houseflies (Musca domestica); assay: whole plant or invertebrate; conditions: 4 hours; for mortality at 0.02 mg: 0.02 mg active ingredient per dish
# Experimental: Continuous contact action on houseflies (Musca domestica)
# Both covers and bottoms of Petri dishes 10 cm in diameter are lined with a total per dish of 2 ml of acetonic solutions of the active ingredients. After the solvent has evaporated (about 30 mins.), 10 flies are introduced into each dish. The kill rate is determined after 4 hours.
# [7] = system: root-knot nematodes (Meloidogyne incognita); assay: Action on root-knot nematodes (Meloidogyne incognita); conditions: cucumber, 6 to 8 weeks
# Experimental: Action on root-knot nematodes (Meloidogyne incognita)
# Garden soil heavily infested with Meloidogyne incognita is split into 200 g portions which are intimately mixed with 30 ml of aqueous active ingredient formulations and filled into plastic pots. Two cucumber seeds are then placed in the soil prepared in this manner. The temperature is not allowed to go below +22° C.
# After 6 to 8 weeks root attack is assessed.
# [8] = Aphis fabae, 0.02 wt % in formulation, read-out: Kill rate
# [9] = Aphis fabae, read-out: Kill rate
# [10] = Musca domestica, read-out: Kill rate
# [11] = Blatta orientalis, read-out: Kill rate
# [12] = Musca domestica, 0.2 mg active ingredient per dish, read-out: Kill rate
smiles,measurement,setting,value
"CCOP(=O)(OCC1C(C)(C)C1(Cl)Cl)Oc1ccc([N+](=O)[O-])cc1 (centres unmarked) [Active ingredient 1, O-ethyl-O-[(2,2-dichloro-3,3-dimethyl-cyclopropyl)-methyl]-O-(4-nitrophenyl)phosphate]",mortality at 0.02 %,[1],100%
same,mortality at 0.25 mg,"[2]; Blatta orientalis, 0.25 mg active ingredient per jar, 5 adult cockroaches, read-out: Kill rate",80%
same,mortality at 0.02 %,[3]; [8],100%
same,Kill rate,[4]; 10.0 ppm in emulsion,100%
"COP(=O)(OCC1CC1(Cl)Cl)Oc1ccccc1[N+](=O)[O-] (centres unmarked) [Active ingredient 3, O-methyl-O-[(2,2-dichlorocyclopropyl)-methyl]-O-(2-nitrophenyl)phosphate]",mortality at 0.005 %,[3]; [9],100%
"COP(=O)(OCC1CC1(Cl)Cl)Oc1cc(Cl)c(Cl)cc1Cl (centres unmarked) [Active ingredient 4, O-methyl-O-[(2,2-dichloro-cyclopropyl)-methyl]-O-(2,4,5-trichlorophenyl)phosphate]",LD50,[5],0.055 μg/fly
same,mortality at 0.01 %,[3]; [9],~90%
same,mortality at 0.02 mg,[6]; [10],100%
same,Kill rate,[4]; 5.0 ppm in emulsion,100%
COP(=S)(OC)Oc1cc(Cl)c(Cl)cc1Cl [III],mortality at 0.02 %,[1],50%
same,LD50,[5],0.13 μg/fly
same,mortality at 0.5 mg,"[2]; Blatta orientalis, 0.5 mg active ingredient per jar, read-out: Kill rate",100%
CCOP(=S)(Oc1ccc(Cl)cc1Cl)c1ccccc1 (centres unmarked) [II],Kill rate,[2]; 1.0 mg active ingredient per jar,ineffective
same,Kill rate,[3]; 0.02 wt % in formulation,< 80%
same,Kill rate,[6]; 0.2 mg active ingredient per dish,ineffective
COP(=S)(OC)Oc1ccc([N+](=O)[O-])c(C)c1 [IV],Kill rate,"[2]; 0.25 mg active ingredient per jar, 5 adult cockroaches",ineffective
CCOP(=S)(OCC)SCC1CC1(Cl)Cl (centres unmarked) [I],mortality at 0.1 %,[1]; 0.1 wt % in emulsion,50%
same,mortality at 5 mg,"[2]; Blatta orientalis, 5.0 mg active ingredient per jar, read-out: Kill rate",100%
same,mortality at 0.1 %,"[3]; Aphis fabae, 0.1 wt % in formulation, read-out: Kill rate",< 50%
same,mortality at 2 mg,"[6]; Musca domestica, 2.0 mg active ingredient per dish, read-out: Kill rate",100%
same,root attack (root-knots),"[7]; 0.1 % active ingredient concentration, ditto mark repeats ""no root-knots""",sporadic root-knots
COP(=O)(OCC1C(C)(C)C1(Cl)Cl)Oc1ccc([N+](=O)[O-])cc1 (centres unmarked) [compound 7],mortality at 0.01 %,[1],80%
same,mortality at 0.2 mg,[2]; [11],100%
same,mortality at 0.01 %,[3]; [9],~90%
same,mortality at 0.2 mg,[6]; [12],100%
same,Kill rate,[4]; 10.0 ppm in emulsion,100%
COP(=O)(OCC1(C)CC1(Cl)Cl)Oc1ccc([N+](=O)[O-])cc1 (centres unmarked) [compound 10],mortality at 0.01 %,[1],100%
same,mortality at 0.04 mg,"[2]; Blatta orientalis, 0.04 mg active ingredient per jar, read-out: Kill rate",100%
same,mortality at 0.01 %,[3]; [9],100%
same,mortality at 0.2 mg,[6]; [12],100%
same,Kill rate,[4]; 10.0 ppm in emulsion,100%
COP(=O)(OCC1C(C)(C)C1(Cl)Cl)Oc1ccccc1[N+](=O)[O-] (centres unmarked) [compound 14],Kill rate,[4]; 10.0 ppm in emulsion,100%
COP(=O)(OCC1(C)CC1(Cl)Cl)Oc1cc(Cl)c(Cl)cc1Cl (centres unmarked) [compound 16],root attack (root-knots),[7]; 0.05 % active ingredient concentration,no root-knots
COP(=O)(OCC1C(C)(C)C1(Cl)Cl)Oc1ccc(SC)cc1 (centres unmarked) [compound 17],mortality at 0.2 mg,[6]; [12],80%
same,Kill rate,[4]; 2.5 ppm in emulsion,100%
CCOP(=O)(OCC1C(C)(C)C1(Cl)Cl)Oc1ccc(SC)cc1 (centres unmarked) [compound 18],Kill rate,[4]; 2.5 ppm in emulsion,100%
CCOP(=O)(OCC1C(C)(C)C1(Cl)Cl)Oc1ccc(SC)c(C)c1 (centres unmarked) [compound 19],Kill rate,[4]; 10.0 ppm in emulsion,100%
COP(=O)(OCC1C(C)(C)C1(Cl)Cl)Oc1ccc(SC)c(C)c1 (centres unmarked) [compound 20],Kill rate,[4]; 2.5 ppm in emulsion,100%
COP(=O)(OCC1(C)CC1(Cl)Cl)Oc1ccc(SC)cc1 (centres unmarked) [compound 21],mortality at 0.1 mg,[2]; [11],100%
same,mortality at 0.2 mg,[6]; [12],100%
same,Kill rate,[4]; 1.0 ppm in emulsion,100%
COP(=O)(OCC1CC1(Cl)Cl)Oc1ccc(C#N)cc1 (centres unmarked) [compound 23],mortality at 0.001 %,[1],80%
same,LD50,[5],0.073 μg/fly
same,mortality at 0.1 mg,[2]; [11],100%
same,mortality at 0.005 %,[3]; [9],~90%
same,mortality at 0.02 mg,[6]; [10],100%
same,Kill rate,[4]; 1.0 ppm in emulsion,100%
COP(=O)(OCC1CC1(Cl)Cl)Oc1ccc(SC)cc1 (centres unmarked) [compound 24],mortality at 0.002 %,[1],80%
same,LD50,[5],0.051 μg/fly
same,mortality at 0.1 mg,[2]; [11],100%
same,mortality at 0.002 %,"[3]; Aphis fabae, 0.002 wt % in formulation, read-out: Kill rate",100%
same,mortality at 0.02 mg,[6]; [10],100%
same,Kill rate,[4]; 1.0 ppm in emulsion,100%
COP(=O)(OCC1CC1(Cl)Cl)Oc1ccc(SC)c(C)c1 (centres unmarked) [compound 25],mortality at 0.002 %,[1],80%
same,mortality at 0.2 mg,[2]; [11],100%
same,mortality at 0.005 %,[3]; [9],100%
same,mortality at 0.02 mg,[6]; [10],80%
same,Kill rate,[4]; 10.0 ppm in emulsion,100%
COP(=O)(OCC1CC1(Cl)Cl)Oc1ccc(Cl)cc1Cl (centres unmarked) [compound 26],mortality at 0.02 %,[3]; [8],100%
same,mortality at 0.2 mg,[6]; [12],100%
COP(=O)(OCC1CC1(Cl)Cl)Oc1ccc([N+](=O)[O-])cc1 (centres unmarked) [compound 27],mortality at 0.001 %,[1],100%
same,LD50,[5],0.057 μg/fly
same,mortality at 0.02 mg,"[2]; Blatta orientalis, 0.02 mg active ingredient per jar, read-out: Kill rate",80%
same,mortality at 0.005 %,[3]; [9],~90%
same,mortality at 0.02 mg,[6]; [10],100%
same,Kill rate,[4]; 1.0 ppm in emulsion,100%
COP(=O)(OCC1C(C)C1(Cl)Cl)Oc1cc(Cl)c(Cl)cc1Cl (centres unmarked) [compound 28],mortality at 0.02 %,[3]; [8],100%
same,mortality at 0.2 mg,[6]; [12],80%
COP(=O)(OCC1C(C)C1(Cl)Cl)Oc1ccc(Cl)cc1Cl (centres unmarked) [compound 29],mortality at 0.02 %,[3]; [8],100%
COP(=O)(OCC1C(C)C1(Cl)Cl)Oc1ccc(SC)cc1 (centres unmarked) [compound 30],mortality at 0.01 %,[3]; [9],100%
same,mortality at 0.2 mg,[6]; [12],100%
same,Kill rate,[4]; 10.0 ppm in emulsion,100%
COP(=O)(OCC1C(C)C1(Cl)Cl)Oc1ccc([N+](=O)[O-])cc1 (centres unmarked) [compound 31],mortality at 0.01 %,[1],80%
same,mortality at 0.2 mg,[2]; [11],100%
same,Kill rate,[4]; 5.0 ppm in emulsion,100%
COP(=O)(OCC1(C)CC1(Cl)Cl)Oc1ccc([N+](=O)[O-])cc1Cl (centres unmarked) [compound 32],mortality at 0.008 %,"[3]; Aphis fabae, 0.008 wt % in formulation, read-out: Kill rate",100%
same,mortality at 0.2 mg,[6]; [12],100%
same,Kill rate,[4]; 10.0 ppm in emulsion,100%
COP(=O)(OCC1(C)CC1(Cl)Cl)Oc1ccc([N+](=O)[O-])c(C)c1 (centres unmarked) [compound 33],mortality at 0.01 %,[3]; [9],100%
same,mortality at 0.2 mg,[6]; [12],80%
